The text below walks through data of patent US11266640B2, “Polycyclic compound acting as IDO inhibitor and/or IDO-HDAC dual inhibitor” (Hangzhou Innogate Pharma Co., Ltd., priority 2017, dated 2022).

The term IC50 denotes the concentration that inhibits the measured activity by half.

One experiment deals with T1, hIDO1 (Homo sapiens, UniProt P14902).
T1 construct: expressed in transfected cells; host or cells: HEK293T (293T) cells, transient transfection with Fugene 6
Nature of the experiment: IDO inhibition activity based on HEK293T cells transfected with hIDO1 plasmid. Conditions: HEK293T cells transfected with hIDO1, 16 hours incubation, OD 480 nm; read-out: IDO inhibitory activity of HEK293T cells (IC50). Format: cell-based. The protocol:
1. Test Method for IDO Inhibition Activity Based on HEK293T Cells:
The first step: cell transfection and plating. 5×10^6 293T cells were separately seeded in two T75 flasks and incubated overnight at 37° C. in a 5% CO2 incubator. […] of a mixture containing 1.5 μg of hIDO1 plasmid and 300 μL of opti-MEM was made into a mixture A; 18 μL of liposome fugene 6 was mixed with 300 μL of opti-MEM to prepare a mixture B, and allowed to stand at room temperature for 5 minutes. Mixture A and Mix B were mixed, placed at room temperature for 20 minutes, added to a 293T culture flask, and the other flask was used as a control and incubated overnight at 37° C. in a 5% CO2 incubator. The medium was discarded, digested with trypsin, and after digestion, the cells were neutralized with serum-containing medium, and the cells were blown to cause the cells to fall off. Pipette the cell suspension into a centrifuge tube and centrifuge at a speed of 800-1000 for 1-3 minutes. Aspirate the cell supernatant from the centrifuge tube. Add an appropriate volume of medium to the tube and gently blister to resuspend the cells. Count using a Vi-Cell XR cytometer. Adjust the cell suspension to the appropriate concentration. The cell suspension was added to a white-well 96-well plate at 80 μL/well. The second step: preparation and addition of the compound. Compounds were formulated in DMSO at 600 μM and the compounds were diluted in DMSO according to a multiple of the following table to give 6 concentration gradients of the compound. The 200× compound prepared in DMSO was formulated into a 10× dilution solution in proportion to the corresponding cell culture medium. Add 10 μL of 10× corresponding compound dilution and 10 μL of 10×TRP to each well, except for Min. Incubate for 16 hours in a 37° C. incubator. The third step: detection and analysis. Cell morphology was observed under an inverted microscope. 80 μL of the supernatant was added to a 3894 plate, and 10 μL of 6.1 N trichloroacetic acid was added to each well, shaken for 2 minutes, and placed in a 50-degree incubator for 30 minutes. Centrifuged at 2500 rpm for 10 minutes. Take 70 μL of the supernatant and transfer to a 3635 UV plate, add 70 μL of the reaction solution, and shake for 2 minutes to make the reaction uniform. Use EnSpire (PE) to detect data with an OD of 480 nm. The cell culture plate 3903 was allowed to stand at room temperature for 30 minutes. 100 μL/well of the cell activity detecting reagent was added to the culture plate. Mix on a shaker for 2 minutes to induce cell lysis. The 96-well plate was allowed to stand at room temperature for 10 minutes to stabilize the luminescence signal. Paste the white base film on the bottom of the plate and the plate was tested in Flexstation 3 (the relevant setting is: Illumination, integration time 500 ms). Record the experimental results obtained from the analysis.
The IC50 value is expressed by: A: IC50 value≤10 nM; B: 10 nM<IC50 value≤50 nM; C: 50 nM<IC50 value≤100 nM; D: IC50 value>100 nM.

For another experiment, the target named is T2, IDO (Homo sapiens, UniProt P14902).
T2 construct: endogenous in cells; host or cells: HeLa cells treated with IFNγ
Nature of the experiment: Hela cell-based IDO inhibitory activity test (IFNγ added). The note with it: Hela cells with IFNγ, 48 hours incubation, OD 480 nm. The protocol:
2. Hela Cell-Based IDO Inhibitory Activity Test Method
The first step: cell plating. Prepare complete medium and mix well. Cell lines that are in good growth state are selected. Remove the cell culture flask from the incubator and check the cell name, media type and cell generation number on the bottle. The medium was discarded, digested with trypsin, and after digestion, the cells were neutralized with serum-containing medium, and the cells were blown to cause the cells to fall off. Pipette the cell suspension into a centrifuge tube and centrifuge at a speed of 800-1000 for 3-5 minutes. Aspirate the cell supernatant from the centrifuge tube. Add an appropriate volume of medium to the tube and gently blister to resuspend the cells. Count using a Vi-Cell XR cytometer. Adjust the cell suspension to the appropriate concentration. The cell suspension was added to a white-well 96-well plate at 80 μl/well according to the schematic below. The second step: preparation and addition of the compound. Compounds were formulated in DMSO at 600 μM and the compounds were diluted in DMSO according to a multiple of the following table to give 6 concentration gradients of the compound. The 200× compound prepared in DMSO was formulated into a 10× dilution solution in proportion to the corresponding cell culture medium. After 24 hours of cell seeding, 10 μL of 10× corresponding compound dilution and 10 μL of 10×IFNγ were added to each well. Incubate for 48 hours in a 37° C. incubator. The third step: detection and analysis. Cell morphology was observed under an inverted microscope. 80 μL of the supernatant was added to a 3894 plate, 10 μL of 6.1 N trichloroacetic acid was added to each well, shaken for 2 minutes, and placed in a 50-degree incubator for 30 minutes. Centrifuge, 2500 rpm for 10 minutes.
Take 70 μL of the supernatant and transfer to a 3635 UV plate, add 70 μL of the reaction solution, and shake for 2 minutes to make the reaction uniform. Use EnSpire (PE) to detect data with an OD of 480 nm. The cell culture plate 3903 was allowed to stand at room temperature for 30 minutes. 100 μL/well of the cell activity detecting reagent was added to the culture plate. Mix on a shaker for 2 minutes to induce cell lysis. The 96-well plate was allowed to stand at room temperature for 10 minutes to stabilize the luminescence signal. Paste the white base film on the bottom of the plate and tested with Flexstation3 plate (the relevant setting is: Illumination, integration time 500 ms). Record the experimental results obtained from the analysis.
The IC50 value is expressed in the following manner: […]

Each structure is given as a SMILES string. A value given as a limit tells only on which side of the number the result lay.

T2 sequence (P14902 whole entry): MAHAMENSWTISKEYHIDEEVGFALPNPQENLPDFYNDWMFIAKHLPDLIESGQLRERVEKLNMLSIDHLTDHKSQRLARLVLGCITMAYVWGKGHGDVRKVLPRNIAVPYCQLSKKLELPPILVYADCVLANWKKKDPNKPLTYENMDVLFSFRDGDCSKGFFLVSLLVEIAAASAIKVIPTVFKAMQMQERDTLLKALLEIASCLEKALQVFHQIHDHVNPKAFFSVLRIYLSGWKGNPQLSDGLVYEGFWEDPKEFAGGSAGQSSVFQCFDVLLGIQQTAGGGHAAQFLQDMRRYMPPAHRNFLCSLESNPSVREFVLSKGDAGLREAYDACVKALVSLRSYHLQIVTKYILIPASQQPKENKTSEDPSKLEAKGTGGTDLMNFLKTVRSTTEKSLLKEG
T1 sequence (P14902 whole entry): as above

In the case of `CC(C(=O)Nc1ccc(Cl)cc1)[C@H]1C[C@H]2C[C@@H](c3ccnc4ccc(F)cc34)C[C@H]2C1` (mixture of isomers) [Compound 1], the IC50 was at most 10 nM at hIDO1 and at most 5 nM at IDO. The like results for `O=C(CC1=C[C@H]2C[C@@H](c3ccnc4ccc(F)cc34)C[C@H]2C1)Nc1ccc(Cl)cc1` (racemic) [Compound 57] were, in that order, 10 to 50 nM and at most 5 nM. On the same counts, the results for `C#Cc1ccc(NC(=O)C(C)[C@H]2C[C@H]3C[C@@H](c4ccnc5ccc(F)cc45)C[C@H]3C2)nc1` (some centres unmarked) [Compound 74] are 10 to 50 nM and at most 5 nM. On the same counts, the results for `CC(C(=O)Nc1ccc(Cl)cc1)[C@@H]1C[C@]2(C)C[C@H](c3ccnc4ccc(F)cc34)C[C@]2(C)C1` (some centres unmarked) [Compound 40] are 10 to 50 nM and at most 5 nM. For the compound `CC(C(=O)Nc1ccc(C#CC2CC2)cn1)[C@H]1C[C@H]2CC(c3ccnc4ccc(F)cc34)C[C@H]2C1` (some centres unmarked) [Compound 79], the half-inhibitory concentration (IC50) was 10 to 50 nM on hIDO1 and over 100 nM at IDO. For the compound `O=C(C[C@@H]1C[C@@H]2C[C@H](c3ccnc4ccc(F)cc34)C[C@@H]2C1)NC1CCC(F)(F)CC1` [Compound 12], the IC50 on hIDO1 was over 100 nM; against IDO, 25 to 100 nM. Consider `C[C@@H](C(=O)Nc1ccc(Cl)cc1)[C@H]1C[C@H]2C[C@@H](c3ccnc4ccc(F)cc34)C[C@H]2C1` (single isomer, unassigned) [Compound 1A], for which the IC50 at hIDO1 was at most 10 nM; at IDO it was at most 5 nM. The like results for `COc1ccc(NC(=O)C(C)[C@H]2C[C@H]3C[C@@H](c4ccnc5ccc(F)cc45)C[C@H]3C2)cn1` (some centres unmarked) [Compound 6] were, in that order, 10 to 50 nM and 5 to 25 nM.

On to `O=C(Cc1ccc(CC(C(=O)Nc2ccc(Cl)cc2)[C@H]2CC[C@@H](c3ccnc4ccc(F)cc43)CC2)cc1)NO` (some centres unmarked) [Compound 10], for which the IC50 at hIDO1 and against IDO was over 100 nM throughout. As for `O=C(C[C@@H]1C[C@@H]2C[C@@H](Oc3ccnc4ccccc34)C[C@@H]2C1)Nc1ccc(Cl)cc1` [Compound 51], the half-inhibitory concentration (IC50) on hIDO1 and at IDO was over 100 nM in each case.

As for `CC(C(=O)Nc1cccc(Cl)c1)[C@H]1C[C@H]2C[C@@H](c3ccnc4ccc(F)cc34)C[C@H]2C1` (some centres unmarked) [Compound 7], the half-inhibitory concentration (IC50) fell in the range of 10 to 50 nM on hIDO1 and 5 to 25 nM at IDO. The like results for `O=C(C[C@H]1C[C@@H]2C[C@H](c3ccnc4ccc(F)cc34)C[C@@H]2C1)Nc1ccc(Cl)cc1` [Compound 5] were, in that order, at most 10 nM and at most 5 nM. The like results for `O=C(C[C@@H]1C[C@@H]2CC(c3ccnc4ccc(F)cc34)=C[C@@H]2C1)Nc1ccc(Cl)cc1` [Compound 11] were, in that order, 10 to 50 nM and at most 5 nM.

In the case of `O=C(Nc1ccc(Cl)cn1)C(F)(F)[C@H]1C[C@H]2C[C@@H](c3ccnc4ccc(F)cc34)C[C@H]2C1` [Compound 104], the IC50 against IDO fell in the range of 25 to 100 nM. The same measure, in the same setting: the result for `C#Cc1ccc(NC(=O)C[C@H]2C[C@@H]3CC(c4ccnc5ccc(F)cc45)=C[C@@H]3C2)nc1` [Compound 65] reads 5 to 25 nM; that for `CC(C)(C(=O)Nc1ccc(Cl)cc1)[C@H]1C[C@H]2C[C@@H](c3ccnc4ccc(F)cc34)C[C@H]2C1` [Compound 60], at most 5 nM; that for `CC(C)(O)C#Cc1ccc(NC(=O)C[C@@H]2C[C@H]3CC(c4ccnc5ccc(F)cc45)C[C@H]3C2)nc1` (some centres unmarked) [Compound 103], over 100 nM. With `O=C(C[C@@H]1C[C@@H]2C[C@H](c3ccnc4ccc(F)cc34)C[C@@H]2C1)Nc1ccc2c(c1)OCC1COCCN21` (some centres unmarked) [Compound 13], the half-inhibitory concentration (IC50) on IDO was over 100 nM.

For the compound `C[C@H](C(=O)Nc1ccc(Cl)cn1)[C@H]1C[C@H]2CC(c3ccnc4ccc(F)cc34)C[C@H]2C1` (single isomer, unassigned) [Compound 26B], the IC50 against IDO is at most 5 nM. Same read-out and setting: under `O=C(C[C@@H]1C[C@@H]2CC(c3ccnc4ccc(F)cc34)=C[C@@H]2C1)Nc1ccc(Cl)cn1` [Compound 61] stands 5 to 25 nM. The same measure, in the same setting: the result for `N#Cc1ccc(NC(=O)C[C@@H]2C[C@@H]3C[C@H](c4ccnc5ccc(F)cc45)C[C@@H]3C2)cn1` [Compound 102] reads at most 5 nM; that for `CC(C)(C(=O)Nc1ccc(C#N)nc1)[C@H]1C[C@H]2C[C@@H](c3ccnc4ccc(F)cc34)C[C@H]2C1` [Compound 89], at most 5 nM; that for `O=C(Nc1ccc(Cl)cc1)C1CC12CCC(c1ccnc3ccc(F)cc13)CC2` (centres unmarked) [Compound 56], 5 to 25 nM. Consider `CC(C(=O)Nc1ccc(-c2cnn(C3CC3)c2)nc1)[C@H]1C[C@H]2C[C@@H](c3ccnc4ccc(F)cc34)C[C@H]2C1` (some centres unmarked) [Compound 32], for which the half-maximal inhibitory concentration (IC50) on IDO is over 100 nM.

Consider `CC#Cc1ccc(NC(=O)C(C)(C)[C@H]2C[C@H]3C[C@@H](c4ccnc5ccc(F)cc45)C[C@H]3C2)cn1` [Compound 91], for which the half-maximal inhibitory concentration (IC50) against IDO is at most 5 nM. Still for that read-out and setting: the result for `CC(C(=O)Nc1nncs1)[C@H]1C[C@H]2C[C@@H](c3ccnc4ccc(F)cc34)C[C@H]2C1` (some centres unmarked) [Compound 31] reads over 100 nM; that for `Cn1ncc2cc(NC(=O)C[C@H]3C[C@H]4CC(c5ccnc6ccc(F)cc56)C[C@H]4C3)ccc21` (some centres unmarked) [Compound 15], over 100 nM; that for `O=C(Nc1ccc(Cl)cn1)/C(F)=C1/C[C@@H]2C[C@H](c3ccnc4ccc(F)cc34)C[C@@H]2C1` [Compound 105], over 100 nM. `CC(C(=O)Nc1ccc(Cl)nc1)[C@H]1C[C@]2(C)C[C@H](c3ccnc4ccc(F)cc34)C[C@]2(C)C1` (some centres unmarked) [Compound 43]: the half-inhibitory concentration (IC50) on IDO is 25 to 100 nM.

`N#Cc1ccc(NC(=O)C[C@H]2C[C@@H]3C[C@H](c4ccnc5ccc(F)cc45)C[C@@H]3C2)nc1` [Compound 70] gave a half-inhibitory concentration (IC50) against IDO of at most 5 nM. The same measure, in the same setting: the result for `O=C(C[C@H]1C[C@H]2CC(c3ccnc4ccc(F)cc34)C[C@H]2C1)Nc1ccc(Cl)cn1` (some centres unmarked) [Compound 17] reads 5 to 25 nM; that for `CC(C(=O)NC1CCOCC1)[C@H]1C[C@H]2C[C@@H](c3ccnc4ccc(F)cc34)C[C@H]2C1` (some centres unmarked) [Compound 3], over 100 nM. The same measure, in the same setting: under `O=C(C[C@H]1C[C@H]2CC(c3ccnc4ccc(F)cc34)C[C@H]2C1)Nc1ccc(Cl)nc1` (some centres unmarked) [Compound 18] stands at most 5 nM.

Compound `N#Cc1ccc(NC(=O)C[C@H]2C[C@@H]3C[C@H](c4ccnc5ccc(F)cc45)C[C@@H]3C2)cn1` [Compound 71] displayed an IC50 at IDO of 5 to 25 nM.
